From ChEMBL document CHEMBL3870313, “Synthesis and structure-activity relationship study of tacrine-based pyrano[2,3-c]pyrazoles targeting AChE/BuChE and 15-LOX” (Eur J Med Chem, 2016) come the findings set out here.

A word on the IC50: it is the point on the concentration scale where inhibition reaches its midpoint. A high value points to lower potency. A word on the viability: it is a read-out of living cells in per cent, often relative to untreated cells. The Ki is a measure of affinity in units of concentration, obtained from inhibition or displacement.

For data set [1], the target named is Cholinesterase (Homo sapiens, UniProt P06276).
Description: Inhibition of human recombinant BChE using butyrylthiocholine iodide as substrate incubated for 5 mins followed by substrate addition measured for 1 min by Ellman's method
Data set [2] concerns the target T1, Acetylcholinesterase (Electrophorus electricus, UniProt O42275).
Description: Inhibition of electric eel AChE using acetylthiocholine iodide as substrate incubated for 5 mins followed by substrate addition measured for 1 min by Ellman's method
Data set [3] is described as follows: in vitro. Conditions: human, HepG2 cells.
Description: Cytotoxicity against human HepG2 cells assessed as cell viability at 5 uM after 24 hrs by MTT assay
Data set [4] in a line: in vitro. The conditions noted are these: human, HepG2 cells. This is another data set of the same source.
Description: Cytotoxicity against human HepG2 cells assessed as cell viability at 300 uM after 24 hrs by MTT assay
Data set [5] is described as follows: in vitro. Conditions: human, HepG2 cells. This is another data set of the same source.
Description: Cytotoxicity against human HepG2 cells assessed as cell viability at 50 uM after 24 hrs by MTT assay
The nature of data set [6]: in vitro. Conditions: human, HepG2 cells. This is another data set of the same source.
Description: Cytotoxicity against human HepG2 cells assessed as cell viability at 1 uM after 24 hrs by MTT assay
Data set [7] is described as follows: in vitro. The conditions noted are these: human, HepG2 cells. The source holds these as a separate data set.
Description: Cytotoxicity against human HepG2 cells assessed as cell viability at 100 uM after 24 hrs by MTT assay
Data set [8] in a line: in vitro. Conditions: human, HepG2 cells. The source holds these as a separate data set.
Description: Cytotoxicity against human HepG2 cells assessed as cell viability at 10 uM after 24 hrs by MTT assay
Data set [9] in a line: in vitro. The conditions noted are these: human, HepG2 cells. The source holds these as a separate data set.
Description: Cytotoxicity against human HepG2 cells assessed as cell viability at 25 uM after 24 hrs by MTT assay
The target of data set [10] is T1, Acetylcholinesterase. Briefly: Mixed type inhibition of electric eel AChE using acetylthiocholine iodide as substrate incubated for 5 mins followed by substrate addition measured for 1 min by Lineweaver-Burk plot analysis.
Data set [11] deals with Acetylcholinesterase (Electrophorus electricus) (UniProt O42275). Kind of data set: Potency index, ratio of tacrine IC50 to compound IC50 for electric eel AChE.
Acetylcholinesterase (Electrophorus electricus), sequence (O42275 24-633 limits assumed): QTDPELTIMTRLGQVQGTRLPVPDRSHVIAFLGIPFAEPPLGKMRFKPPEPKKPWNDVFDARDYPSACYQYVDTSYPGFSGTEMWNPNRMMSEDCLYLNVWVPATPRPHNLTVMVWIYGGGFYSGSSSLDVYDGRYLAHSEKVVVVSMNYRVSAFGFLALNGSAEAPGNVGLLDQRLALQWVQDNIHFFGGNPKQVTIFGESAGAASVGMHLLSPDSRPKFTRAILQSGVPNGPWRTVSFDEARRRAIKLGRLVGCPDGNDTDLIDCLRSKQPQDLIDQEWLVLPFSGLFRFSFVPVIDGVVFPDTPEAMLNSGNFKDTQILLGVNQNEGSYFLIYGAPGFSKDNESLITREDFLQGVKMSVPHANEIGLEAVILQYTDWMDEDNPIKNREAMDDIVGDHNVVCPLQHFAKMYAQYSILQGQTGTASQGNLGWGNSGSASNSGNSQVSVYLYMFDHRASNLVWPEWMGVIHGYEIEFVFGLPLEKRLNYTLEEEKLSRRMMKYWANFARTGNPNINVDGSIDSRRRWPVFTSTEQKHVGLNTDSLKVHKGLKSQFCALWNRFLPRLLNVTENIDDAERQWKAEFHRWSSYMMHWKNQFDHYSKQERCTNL

Cholinesterase, sequence (P06276 whole entry): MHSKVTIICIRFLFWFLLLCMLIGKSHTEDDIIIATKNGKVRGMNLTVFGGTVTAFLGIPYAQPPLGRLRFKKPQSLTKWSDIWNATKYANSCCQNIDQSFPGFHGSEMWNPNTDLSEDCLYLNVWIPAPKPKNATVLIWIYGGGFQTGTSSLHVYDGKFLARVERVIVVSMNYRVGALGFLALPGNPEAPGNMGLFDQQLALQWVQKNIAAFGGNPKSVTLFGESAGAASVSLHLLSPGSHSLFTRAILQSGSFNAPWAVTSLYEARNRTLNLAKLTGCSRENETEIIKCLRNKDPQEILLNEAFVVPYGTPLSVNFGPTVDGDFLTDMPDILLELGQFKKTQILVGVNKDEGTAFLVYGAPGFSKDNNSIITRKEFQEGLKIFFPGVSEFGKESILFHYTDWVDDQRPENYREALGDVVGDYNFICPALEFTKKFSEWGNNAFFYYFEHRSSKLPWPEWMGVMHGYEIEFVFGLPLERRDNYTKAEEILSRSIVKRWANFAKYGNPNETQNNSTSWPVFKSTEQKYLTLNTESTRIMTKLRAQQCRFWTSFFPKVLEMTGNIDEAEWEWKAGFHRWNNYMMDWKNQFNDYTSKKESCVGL
T1 sequence (O42275 whole entry): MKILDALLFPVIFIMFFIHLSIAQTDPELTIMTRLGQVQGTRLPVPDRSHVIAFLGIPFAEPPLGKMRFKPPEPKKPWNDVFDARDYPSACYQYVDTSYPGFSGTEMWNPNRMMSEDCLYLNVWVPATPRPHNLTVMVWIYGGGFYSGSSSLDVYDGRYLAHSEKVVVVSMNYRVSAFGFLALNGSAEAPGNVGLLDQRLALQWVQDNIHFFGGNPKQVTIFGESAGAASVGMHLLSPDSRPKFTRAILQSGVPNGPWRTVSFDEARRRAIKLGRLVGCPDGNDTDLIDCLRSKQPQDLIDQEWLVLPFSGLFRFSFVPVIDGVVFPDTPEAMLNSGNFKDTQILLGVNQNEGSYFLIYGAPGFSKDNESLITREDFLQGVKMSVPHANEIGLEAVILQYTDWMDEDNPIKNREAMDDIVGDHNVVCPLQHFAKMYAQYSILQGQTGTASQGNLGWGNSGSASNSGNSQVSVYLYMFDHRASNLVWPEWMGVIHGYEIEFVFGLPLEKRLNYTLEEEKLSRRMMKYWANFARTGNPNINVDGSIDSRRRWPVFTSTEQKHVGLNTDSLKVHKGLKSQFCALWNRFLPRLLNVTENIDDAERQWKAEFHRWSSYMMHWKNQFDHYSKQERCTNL

Regarding `Nc1c2c(nc3c1C(c1ccccc1)c1c(-c4ccccc4)n[nH]c1O3)CCCCC2` (stereo unspecified), the IC50 in [1] worked out at 9 nM; in data set [2], 54 nM.

As for `CCCc1n[nH]c2c1C(c1ccc([N+](=O)[O-])cc1)c1c(nc3c(c1N)CCCC3)O2` (stereo unspecified), the IC50 in data set [1] came to 29 nM; in [2], 744 nM.

As to `Nc1c2c(nc3c1C(c1ccccc1)c1c(-c4ccccc4)nn(-c4ccccc4)c1O3)CCCC2` (stereo unspecified), the 50% inhibitory concentration (IC50) in data set [1] and in data set [2] was above 200000 nM each time.

With `CCCc1n[nH]c2c1C(c1ccc(SC)cc1)c1c(nc3c(c1N)CCCC3)O2` (stereo unspecified), the IC50 in [1] was determined as 8 nM; in data set [2], 201 nM.

On to `Nc1c2c(nc3c1C(c1ccccc1)c1c(-c4ccco4)n[nH]c1O3)CCCC2` (stereo unspecified), for which the IC50 is 15 nM in [1] and 100 nM in data set [2].

`CCCc1n[nH]c2c1C(c1ccccc1OC)c1c(nc3c(c1N)CCCC3)O2` (stereo unspecified): the IC50 was found to be 18 nM in data set [1] and 471 nM in [2].

Turning to `CCCc1n[nH]c2c1C(c1ccc(OC)c(OC)c1)c1c(nc3c(c1N)CCCC3)O2` (stereo unspecified), the IC50 in data set [1] was 365 nM; in [2], 1470 nM.

Consider `CCCc1n[nH]c2c1C(c1cccc(Br)c1)c1c(nc3c(c1N)CCCC3)O2` (stereo unspecified), for which the IC50 in [1] came to 15 nM; in data set [2], 472 nM.

With `CCCc1n[nH]c2c1C(c1ccc(Cl)cc1)c1c(nc3c(c1N)CCCCC3)O2` (stereo unspecified), the IC50 in data set [1] was determined as 75 nM; in data set [2], 1060 nM.

As for `Cc1ccc(C2c3c(-c4ccccc4)n[nH]c3Oc3cc4c(c(N)c32)CCCC4)cc1` (stereo unspecified), the results for the IC50 in [1] and in data set [2] were 11 nM and 98 nM, respectively.

Turning to `CCCc1n[nH]c2c1C(c1ccc(N(C)C)cc1)c1c(nc3c(c1N)CCCC3)O2` (stereo unspecified), the IC50 in [1] turned out to be 24 nM; in [2], 347 nM.

In the case of `CCCc1n[nH]c2c1C(c1ccc(C)cc1)c1c(nc3c(c1N)CSCC3)O2` (stereo unspecified), the IC50 in data set [1] stood at 73 nM; in data set [2], 1030 nM.

On to `CCCc1n[nH]c2c1C(c1ccc(OC)cc1)c1c(nc3c(c1N)CCCC3)O2` (stereo unspecified), for which the IC50 came to 6 nM in data set [1] and 52 nM in [2].

For the compound `Nc1c2c(nc3c1C(c1ccccc1)c1c(-c4ccco4)nn(-c4ccccc4)c1O3)CCCC2` (stereo unspecified), the results for the IC50 in data set [1] and in data set [2] were 5 nM and 72 nM, respectively. Moreover, the viability at 24 h, 5 µM in data set [3] was 95.8%. Besides, the viability at 24 h, 300 µM in data set [4] is 67.4%. In addition, the viability at 24 h, 50 µM in data set [5] amounted to 81.4%. Besides, in data set [6], the viability at 24 h, 1 µM came out at 99.6%. Besides, the viability at 24 h, 100 µM in data set [7] was found to be 75.7%. Besides, in [8], the viability at 24 h, 10 µM was 90.3%. The viability at 24 h, 25 µM in data set [9] was determined as 85%.

`CCCc1n[nH]c2c1C(c1cccc([N+](=O)[O-])c1)c1c(nc3c(c1N)CCCC3)O2` (stereo unspecified): the IC50 was 12 nM in data set [1] and 423 nM in data set [2].

In the case of `CCCc1n[nH]c2c1C(c1ccc(C)cc1)c1c(nc3c(c1N)CCCC3)O2` (stereo unspecified), the IC50 in [1] is 13 nM; in data set [2], 120 nM.

Consider `CCCc1n[nH]c2c1C(c1ccc(Cl)cc1)c1c(nc3c(c1N)CSCC3)O2` (stereo unspecified), for which the IC50 in data set [1] was found to be 15 nM; in data set [2] it was 300 nM.

Turning to `Nc1c2c(nc3c1C(c1ccc(Cl)cc1)c1c(-c4ccccc4)n[nH]c1O3)CCCCC2` (stereo unspecified), the figures for the IC50 in [1] and in data set [2] were 77 nM and 1920 nM, respectively.

On to `Nc1c2c(nc3c1C(c1ccc(Cl)cc1)c1c(-c4ccccc4)n[nH]c1O3)CCSC2` (stereo unspecified), for which the IC50 in data set [1] stood at 30 nM; in data set [2], 450 nM.

Regarding `CCCc1n[nH]c2c1C(c1cc(OC)c(OC)c(OC)c1)c1c(nc3c(c1N)CCCC3)O2` (stereo unspecified), the IC50 in data set [1] was found to be 42 nM; in [2], 900 nM.

Turning to `COc1cc(C2c3c(-c4ccccc4)n[nH]c3Oc3nc4c(c(N)c32)CCCC4)cc(OC)c1OC` (stereo unspecified), the concentration for half-maximal inhibition (IC50) is 65 nM in [1] and 1030 nM in data set [2].

`COc1ccc(C2c3c(-c4ccccc4)n[nH]c3Oc3cc4c(c(N)c32)CCCC4)cc1` (stereo unspecified): the IC50 in data set [1] is 7 nM; in data set [2], 81 nM. The viability at 24 h, 5 µM in data set [3] turned out to be 99.4%. Also, in data set [4], the viability at 24 h, 300 µM was determined as 71.3%. For the same compound, the viability at 24 h, 50 µM in data set [5] worked out at 98.2%. Further, in data set [6], the viability at 24 h, 1 µM was 99.1%. Also, the viability at 24 h, 100 µM in data set [7] was 85.6%. For the same compound, the viability at 24 h, 10 µM in data set [8] stood at 99.7%. Also, the viability at 24 h, 25 µM in data set [9] is 99.7%.

Regarding `Nc1c2c(cc3c1C(c1ccc(F)cc1)c1c(-c4ccccc4)n[nH]c1O3)CCCC2` (stereo unspecified), the IC50 is 7 nM in data set [1] and 34 nM in [2]. Also, the Ki in [10] was found to be 490 nM. For the same compound, in [3], the viability at 24 h, 5 µM was 100%. In data set [11], the Ratio IC50 is 6. Moreover, in data set [4], the viability at 24 h, 300 µM stood at 73.4%. Moreover, the viability at 24 h, 50 µM in data set [5] came to 98.4%. Besides, the viability at 24 h, 1 µM in data set [6] came to 101%. Further, in data set [7], the viability at 24 h, 100 µM turned out to be 89.9%. Moreover, in data set [8], the viability at 24 h, 10 µM stood at 100%. The viability at 24 h, 25 µM in [9] stood at 99.7%.

On to `CCCc1n[nH]c2c1C(c1ccccc1)c1c(nc3c(c1N)CCCCC3)O2` (stereo unspecified), for which the IC50 in data set [1] turned out to be 43 nM; in data set [2], 650 nM.

Regarding `Nc1c2c(cc3c1C(c1ccccc1)c1c(-c4ccccc4)n[nH]c1O3)CCCC2` (stereo unspecified), the figures for the IC50 in data set [1] and in [2] were 8 nM and 140 nM, respectively.

With `Nc1c2c(cc3c1C(c1ccc(Cl)cc1)c1c(-c4ccccc4)n[nH]c1O3)CCCC2` (stereo unspecified), the values for the IC50 in data set [1] and in data set [2] were 21 nM and 260 nM, respectively.

As to `CCCc1n[nH]c2c1C(c1ccc(Cl)cc1)c1c(nc3c(c1N)CCCC3)O2` (stereo unspecified), the values for the IC50 in data set [1] and in [2] were 10 nM and 200 nM, respectively.

For the compound `CCCc1n[nH]c2c1C(c1ccc(C#N)cc1)c1c(nc3c(c1N)CCCC3)O2` (stereo unspecified), the figures for the IC50 in data set [1] and in data set [2] were 37 nM and 954 nM, respectively.

Consider `CC(C)C1c2c(-c3ccccc3)n[nH]c2Oc2nc3c(c(N)c21)CCCC3` (stereo unspecified), for which the IC50 was 570 nM in data set [1] and 15000 nM in data set [2].
